Reference: ChEMBL document CHEMBL4673283, “Penisarins A and B, Sesquiterpene Coumarins Isolated from an Endophytic Penicillium sp” (J Nat Prod, 2020)
The source made the active and inactive calls. The rule behind the calls is not given here.

How the values were obtained:
Type in all cases: functional, cell-based
SMMC-7721 = assay: Cytotoxicity against human SMMC-7721 cells assessed as reduction in cell viability after 48 hrs by MTS assay; details: SMMC-7721, 48 h
SW480 = assay: Cytotoxicity against human SW480 cells assessed as reduction in cell viability after 48 hrs by MTS assay; details: SW480, 48 h
RAW264.7 = assay: Inhibition of LPS-induced NO production in mouse RAW264.7 cells at 50 uM incubated for 18 hrs by Griess reagent based assay
A549 = assay: Cytotoxicity against human A549 cells assessed as reduction in cell viability after 48 hrs by MTS assay; details: A549, 48 h
MCF7 = assay: Cytotoxicity against human MCF7 cells assessed as reduction in cell viability after 48 hrs by MTS assay; details: MCF7, 48 h
HL-60 = assay: Cytotoxicity against human HL-60 cells assessed as reduction in cell viability after 48 hrs by MTS assay; details: HL-60, 48 h

| SMILES | IC50 (SMMC-7721) | IC50 (SW480) | inhibition (RAW264.7) | IC50 (A549) | IC50 (MCF7) | IC50 (HL-60) |
| --- | --- | --- | --- | --- | --- | --- |
| COc1cc(C)c2c3c(c(=O)oc2c1)C[C@@H]([C@@]1(C)CC[C@H]2C(C)(C)C(=O)CC[C@@]21C)O3 | > 40 µM | > 40 µM | inactive | > 40 µM | > 40 µM | > 40 µM |
| COc1cc(C)c2c3c(c(=O)oc2c1)C[C@@H]([C@@]1(C)CC[C@H]2C(C)(C)[C@@H](O)CC[C@@]21C)O3 | 3.7 µM | 27.1 µM | inactive | 15.3 µM | 13 µM | 3.6 µM |
